Test results published in patent US10676474B2, “1,6-naphthyridine derivatives as CDK4/6 inhibitor” (CSTONE PHARMACEUTICALS, priority 2016, dated 2020).
pIC50: −log10 of the molar value. Values after ≈ are worked out from the molar mass of the structure shown.

What was measured:
CDK4/cyclin D1 = target: T1, CDK4/cyclin D1 (Homo sapiens, UniProt P11802); assay: Enzyme activity assay CDK4/cyclin D1 (Lance Ultra); format: biochemical; conditions: 0.3 nM CDK4/cyclin D1, 350 μM ATP, 180 minutes
T1 construct: purchased Life technology
T1 sequence (P11802 whole entry): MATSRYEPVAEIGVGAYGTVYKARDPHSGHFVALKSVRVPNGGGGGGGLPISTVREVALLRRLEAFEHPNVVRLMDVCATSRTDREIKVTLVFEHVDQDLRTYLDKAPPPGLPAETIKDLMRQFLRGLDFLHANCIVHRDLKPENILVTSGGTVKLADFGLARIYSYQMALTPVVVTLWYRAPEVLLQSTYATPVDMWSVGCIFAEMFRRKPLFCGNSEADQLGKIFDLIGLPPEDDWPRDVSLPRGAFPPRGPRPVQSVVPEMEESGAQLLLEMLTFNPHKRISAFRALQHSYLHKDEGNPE
T1 sequence (P24385 whole entry partner): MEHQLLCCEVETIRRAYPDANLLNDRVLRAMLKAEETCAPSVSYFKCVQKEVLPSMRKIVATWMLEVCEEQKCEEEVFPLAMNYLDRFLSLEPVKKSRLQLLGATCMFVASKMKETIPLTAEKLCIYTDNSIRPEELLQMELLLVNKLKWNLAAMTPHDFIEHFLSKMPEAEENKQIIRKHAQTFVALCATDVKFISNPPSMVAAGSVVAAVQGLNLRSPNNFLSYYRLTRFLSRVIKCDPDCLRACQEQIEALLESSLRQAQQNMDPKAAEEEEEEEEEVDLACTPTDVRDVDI
Description: CDK4/cyclin D1, CDK6/cyclin D1 (Life technology). ULight labeled polypeptide substrates ULight-4E-BP1 and ULight-MBP (PerkinElmer). Europium labeled anti-myelin basic protein antibody and europium labeled rabbit-derived antibody (PerkinElmer). Envision Multi-label Analyzer (PerkinElmer) for signal detection.
They were respectively dissolved in an enzyme buffer solution comprising: 50 mM hydroxyethylpiperazine ethanesulfuric acid solution at pH 7.5, 1 mM ethylenediaminetetraacetic acid, 10 mM magnesium chloride, 0.01% Brij-35, 2 mM dithiothreitol. After the reaction was begun, the OptiPlate 384-well plate was sealed with a top heat seal film TopSeal-A, and incubated at room temperature for 180 minutes.
The termination buffer solution of the enzymatic reaction was prepared, and EDTA was dissolved in a 1-fold diluted assay buffer solution. The reaction was terminated and incubated at room temperature for 5 minutes. 5 μL of the assay mixed solution (prepared with europium labeled anti-myelin basic protein antibody and europium labeled rabbit-derived antibody, respectively) was added to the reactions of CDK4/cyclin D1 and CDK6/cyclin D1, respectively, and incubated at room temperature for 60 minutes. The reaction signal was detected by Envision according to the time-resolved fluorescence resonance energy transfer theory.

NCI-H358 cells = assay: Cell viability assay NCI-H358 (CellTiter-Glo); format: cell-based; conditions: Homo sapiens, 168 h; NCI-H358, incubated for 7 days
Description: The NCI-H358 cell line is from the cell bank of the Department of Biology of WuXi Apptec Co. Ltd. Envision Multi-Label Analyzer (PerkinElmer).
1) 100 μL of phosphate buffer solution was added to the peripheral wells of the 384-well plate and 40 μL of NCI-H358 cell suspension was added to the other wells containing 250 NCI-H358 cells. The cell plate was then placed in a carbon dioxide incubator and incubated overnight.
2) A 3-fold gradient dilution was subjected to the tested compounds using Echo. Each compound was diluted by 10 concentration gradients (diluted from 25 μM to 1.27 nM), 100 nL of which was added to the corresponding wells of the cell plate. The cell plate was then placed in a carbon dioxide incubator and incubated for 7 days.
3) 20 μL of Promega CellTiter-Glo reagent was added to each well of the cell plate, and shaken for 10 minutes away from light at room temperature to stabilize the luminescence signal. Readings were performed using a PerkinElmer Envision Multi-label Analyzer.
Table 1 provides the inhibitory activity of the compounds of the present invention against the proliferation of H358 cells.

[1] = Metabolic stability in human liver microsomes; format: in vitro ADME; conditions: 0.5 mg/mL protein, read-out: Human T1/2
Description: This assay is used to test the metabolic stability of tested substances in rats, mice and human liver microsomes.
1) The tested compound with concentration of 1 μM was co-incubated with liver microsomes with a protein concentration of 0.5 mg/mL under a reducing coenzyme II regeneration system in a 37° C. water bath.
2) The positive controls include: testosterone (3A4 substrate), propafenene (2D6 substrate) and diclofenac (2C9 substrate). The incubation condition of the positive controls was consistent with that of the compound.
3) The reaction time points were: 0, 5, 10, 20, 30 and 60 minutes, and the reaction is terminated at the corresponding time point using a termination solution containing an internal standard. The compounds were also incubated with microsomes for 60 minutes without a reducing coenzyme II regeneration system and served as a negative control.
4) Each time point was a single point (n=1).
5) The sample was determined by LC/MS/MS, and the compound concentration was shown as the ratio of the peak area of the compound to the peak area of the internal standard (non-standard).
6) In the project report summary, the half-life and the clearance rate would be calculated.

[2] = test system: non-small cell lung cancer NCI-H358 model; assay: In vivo pharmacodynamic study (2), NCI-H358 model, tumor volume; set-up: species or system BALB/c nude mice; conditions: for Gross tumor volume (Day 1): Day 1, Table 6-2; for Gross tumor volume (Day 28): Day 28, Table 6-2
Description: The in vivo pharmacodynamic experiments were performed on the BALB/c nude mice implanted subcutaneously with the non-small cell lung cancer NCI-H358 model.
All of the cages, beddings and water were disinfected before use. All of the animals were permitted free access to a standard certified commercial laboratory diet. A total of 86 mice purchased from Vital River Laboratory Animal Co., LTD, Beijing were used for the study. The animal information of the experiments in Example 34 was as follows: BALB/c nude mice, female, 6-8 weeks, weighing approximately 16-18 g, were placed in a single ventilated cage (4 mice per cage) under a special pathogen free environment. All of the cages, beddings and water were disinfected before use. All of the animals were permitted free access to a standard certified commercial laboratory diet. A total of 56 mice purchased from Shanghai Lingchang Biotechnology Co., Ltd. were used for the study.
Each mouse was implanted subcutaneously with NCI-H358 tumor cells in the right back for tumor growth. The dosing initiated when the average tumor volume reached about 100-200 mm^3. […] The tumor volume was measured twice a week using a two-dimensional caliper, and the volume was measured in mm^3, calculated by the following the formula: V=0.5 a×b^2, wherein, a and b were the long and short diameters of the tumor, respectively. The antitumor efficacy was determined by dividing the average increase in the tumor volume of the animals treated with the compound by the average increase in the tumor volume of the untreated animals, and the safety of the compound was determined by the change in the body weight of the animal treated with the compound.
TGI: Tumor Growth Inhibition.

physchem = conditions: phosphate buffer, pH 7.4, aqueous buffer, kinetic from dmso stock
[3] = Thermodynamic solubility test (shake-flask, HPLC); format: physicochemical; conditions: phosphate buffer, aqueous buffer, thermodynamic from solid; pH = 7.4, Table 3-2; read-out: Thermodynamic solubility
Description: The thermodynamic solubility of the compounds was determined by the shake-flask method and HPLC. The solubility of the compounds is an important property that affects drug screening of compounds and the absorption of compounds in animals and humans. A saturated solution of the compound was first given and quantitatively tested by HPLC to obtain the solubility of the compound.
50 mM phosphate buffer solution, pH 7.4.
Not less than 2 mg of the sample powder was weighed into a vial of Whatman miniuniprep. If test of the thermodynamic solubility of a sample in multiple buffer solutions is required, an individual vial is required for each test.
450 μL of the buffer solution (pH 7.4) was added to each Whatman miniuniprep vial.
After the addition of the buffer solution, the Whatman miniuniprep cap with a filter was mounted and pressed above the liquid level so that the filter could contact with the buffer solution during shaking.
And the observation of the solution was recorded.
It was shaked at 550 RPM for 24 hours at room temperature (about 22 to 25° C.).
The Whatman Miniunipreps filter cap was pressed to the bottom to give the filtrate of the sample solubility solution. All sample vials should be filtered before and after insoluble substances and their leakage.
The buffer was diluted 50 folds to give a sample diluent.
Three UV standards from low to high concentration were injected into HPLC, followed by the injection of the dilutions and supernatants of the tested compounds. The tested sample was injected twice.

- pIC50 (CDK4/cyclin D1): 8.13
- pIC50 (NCI-H358 cells): 6.75
- half-life at 1 μM [1]: 43.1 min
- solubility kinetic at 24 h (physchem): 0.194 mM (≈ 101 µg/mL)
- solubility thermodynamic at 24 h [3]: 6.42 mM (≈ 3330 µg/mL)
Structure (SMILES): CC(=O)c1c(C)c2cnc(Nc3cnc(N4CCN(CCN(C)C)CC4)cn3)cc2n(C2CCCC2)c1=O [Example 34]
- Gross tumor volume (Day 1) ([2]; 20 mg/kg orally daily): 149 ± 18 mm^3
- TGI (Day 28) ([2]; 20 mg/kg orally daily): 15.3%
- Gross tumor volume (Day 28) ([2]; 20 mg/kg orally daily): 940 ± 70 mm^3
- Gross tumor volume (Day 1) ([2]; 60 mg/kg orally daily): 169 ± 27 mm^3
- TGI (Day 28) ([2]; 60 mg/kg orally daily): 32.1%
- Gross tumor volume (Day 28) ([2]; 60 mg/kg orally daily): 804 ± 103 mm^3
- Gross tumor volume (Day 1) ([2]; 150 mg/kg orally daily): 149 ± 18 mm^3
- TGI (Day 28) ([2]; 150 mg/kg orally daily): 92.9%
- Gross tumor volume (Day 28) ([2]; 150 mg/kg orally daily): 215 ± 34 mm^3
